# Test system: Platelet Aggregation in Dog PRP
# Experiment: In-Vitro Platelet Aggregation in PRP (ADP induced)
# Format: cell-based
# Details: Canis lupus familiaris, Platelet, in-vitro
# Procedure: Healthy male or female dogs were fasted for 8 hours prior to drawing blood; then 30 ml whole blood was collected using a butterfly needle and 30 cc plastic syringe with 3 ml of 0.129 M buffered sodium citrate (3.8%). The syringe was rotated carefully as blood was drawn to mix the citrate. Platelet-rich plasma (PRP) was prepared by centrifugation at 975×g for 3.17 minutes at room temperature, allowing the centrifuge to coast to a stop without braking. The PRP was removed from the blood with a plastic pipette and placed in a plastic capped, 50 ml Corning conical sterile centrifuge tube which was held at room temperature. Platelet poor plasma (PPP) was prepared by centrifuging the remaining blood at 2000×g for 15 minutes at room temperature allowing the centrifuge to coast to a stop without braking. The PRP was adjusted with PPP to a count of 2-3×10^8 platelets per ml. 400 μl of the PRP preparation and 50 μl of the compound to be tested or saline were preincubated for 1 minute at 37° C. in a BioData aggregometer (BioData, Horsham, Pa.). 50 μl of adenosine 5'diphosphate (ADP) (50 μm final concentration) was added to the cuvettes and the aggregation was monitored for 1 minute. All compounds are tested in duplicate. Results are calculated as follows:
# Percent of control=[(maximal OD minus initial OD of compound) divided by (maximal OD minus initial OD of control saline)]×100. The % inhibition=100-(percent of control).
row,Compound,IC50
1,N=C(N)c1ccc(CCCCC(=O)NC(CC(=O)O)c2ccccc2F)cc1 (stereo not drawn) [β-[[5-[4-(aminoiminomethyl)phenyl]-1-oxopentyl]amino]-2-fluorobenzenepropanoic acid],5200 nM
2,N=C(N)c1ccc(CCCCC(=O)NC(CC(=O)O)c2ccccn2)cc1 (stereo not drawn) [β-[[5-[4-(aminoiminomethyl)phenyl]-1-oxopentyl]amino]-2-pyridinepropanoic acid],2300 nM
3,"N=C(N)c1ccc(CCCCC(=O)NC(CC(=O)O)c2ccc(Cl)c(Cl)c2)cc1 (stereo not drawn) [β-[[5-[4-(aminoiminomethyl)phenyl]-1-oxopentyl]amino]-3,4-dichlorobenzenepropanoic acid]",6800 nM
4,"COc1ccc(C(CC(=O)O)NC(=O)CCCCc2ccc(C(=N)N)cc2)cc1OC (stereo not drawn) [β-[[5-[4-(aminoiminomethyl)phenyl]-1-oxopentyl]amino]-3,4-dimethoxybenzenepropanoic acid]",530 nM
5,"N=C(N)c1ccc(CCCCC(=O)NC(CC(=O)O)c2cc(Cl)cc(Cl)c2)cc1 (stereo not drawn) [β-[[5-[4-(aminoiminomethyl)phenyl]-1-oxopentyl]amino]-3,5-dichlorobenzenepropanoic acid]",6000 nM
6,"COc1cc(OC)cc(C(CC(=O)O)NC(=O)CCCCc2ccc(C(=N)N)cc2)c1 (stereo not drawn) [β-[[5-[4-(aminoiminomethyl)phenyl]-1-oxopentyl]amino]-3,5-dimethoxybenzenepropanoic acid]",330 nM
7,N=C(N)c1ccc(CCCCC(=O)NC(CC(=O)O)c2cccc(C(F)(F)F)c2)cc1 (stereo not drawn) [β-[[5-[4-(aminoiminomethyl)phenyl]-1-oxopentyl]amino]-3-(trifluoromethyl)benzenepropanoic acid],7000 nM
8,N#Cc1cccc(C(CC(=O)O)NC(=O)CCCCc2ccc(C(=N)N)cc2)c1 (stereo not drawn) [β-[[5-[4-(aminoiminomethyl)phenyl]-1-oxopentyl]amino]-3-cyanobenzenepropanoic acid],1400 nM
9,N=C(N)c1ccc(CCCCC(=O)NC(CC(=O)O)C2CC=CCC2)cc1 (stereo not drawn) [β-[[5-[4-(aminoiminomethyl)phenyl]-1-oxopentyl]amino]-3-cyclohexene-1-propanoic acid],4000 nM
10,N=C(N)c1ccc(CCCCC(=O)NC(CC(=O)O)c2cccc(F)c2)cc1 (stereo not drawn) [β-[[5-[4-(aminoiminomethyl)phenyl]-1-oxopentyl]amino]-3-fluorobenzenepropanoic acid],1300 nM
11,COc1cccc(C(CC(=O)O)NC(=O)CCCCc2ccc(C(=N)N)cc2)c1 (stereo not drawn) [β-[[5-[4-(aminoiminomethyl)phenyl]-1-oxopentyl]amino]-3-methoxybenzenepropanoic acid],1300 nM
12,N=C(N)c1ccc(CCCCC(=O)NC(CC(=O)O)c2cccc(Oc3ccccc3)c2)cc1 (stereo not drawn) [β-[[5-[4-(aminoiminomethyl)phenyl]-1-oxopentyl]amino]-3-phenoxybenzenepropanoic acid],5100 nM
13,N=C(N)c1ccc(CCCCC(=O)NC(CC(=O)O)c2cccnc2)cc1 (stereo not drawn) [β-[[5-[4-(aminoiminomethyl)phenyl]-1-oxopentyl]amino]-3-pyridinepropanoic acid],120 nM
14,N=C(N)c1ccc(CCCCC(=O)NC(CC(=O)O)c2ccc(OCc3ccccc3)cc2)cc1 (stereo not drawn) [β-[[5-[4-(aminoiminomethyl)phenyl]-1-oxopentyl]amino]-4-(phenylmethoxy)benzenepropanoic acid],1200 nM
15,N=C(N)c1ccc(CCCCC(=O)NC(CC(=O)O)c2ccc(C(F)(F)F)cc2)cc1 (stereo not drawn) [β-[[5-[4-(aminoiminomethyl)phenyl]-1-oxopentyl]amino]-4-(trifluoromethyl)benzenepropanoic acid],4300 nM
16,N=C(N)c1ccc(CCCCC(=O)NC(CC(=O)O)c2ccc(Br)cc2)cc1 (stereo not drawn) [β-[[5-[4-(aminoiminomethyl)phenyl]-1-oxopentyl]amino]-4-bromobenzenepropanoic acid],3100 nM
17,N=C(N)c1ccc(CCCCC(=O)NC(CC(=O)O)c2ccc(C(=O)O)cc2)cc1 (stereo not drawn) [β-[[5-[4-(aminoiminomethyl)phenyl]-1-oxopentyl]amino]-4-carboxybenzenepropanoic acid],1300 nM
18,N=C(N)c1ccc(CCCCC(=O)NC(CC(=O)O)c2ccc(Cl)cc2)cc1 (stereo not drawn) [β-[[5-[4-(aminoiminomethyl)phenyl]-1-oxopentyl]amino]-4-chlorobenzenepropanoic acid],2800 nM
19,N#Cc1ccc(C(CC(=O)O)NC(=O)CCCCc2ccc(C(=N)N)cc2)cc1 (stereo not drawn) [β-[[5-[4-(aminoiminomethyl)phenyl]-1-oxopentyl]amino]-4-cyanobenzenepropanoic acid],1300 nM
20,CCOc1ccc(C(CC(=O)O)NC(=O)CCCCc2ccc(C(=N)N)cc2)cc1 (stereo not drawn) [β-[[5-[4-(aminoiminomethyl)phenyl]-1-oxopentyl]amino]-4-ethoxybenzenepropanoic acid],400 nM
21,N=C(N)c1ccc(CCCCC(=O)NC(CC(=O)O)c2ccc(F)cc2)cc1 (stereo not drawn) [β-[[5-[4-(aminoiminomethyl)phenyl]-1-oxopentyl]amino]-4-fluorobenzenepropanoic acid],3000 nM
22,N=C(N)c1ccc(CCCCC(=O)NC(CC(=O)O)c2ccc(O)cc2)cc1 (stereo not drawn) [β-[[5-[4-(aminoiminomethyl)phenyl]-1-oxopentyl]amino]-4-hydroxybenzenepropanoic acid],800 nM
23,N=C(N)c1ccc(CCCCC(=O)NC(CC(=O)O)c2ccc(Oc3ccccc3)cc2)cc1 (stereo not drawn) [β-[[5-[4-(aminoiminomethyl)phenyl]-1-oxopentyl]amino]-4-phenoxybenzenepropanoic acid],2000 nM
24,N=C(N)c1ccc(CCCCC(=O)NC(CCCCc2ccccc2)CC(=O)O)cc1 (stereo not drawn) [β-[[5-[4-(aminoiminomethyl)phenyl]-1-oxopentyl]amino]benzeneheptanoic acid],7100 nM
25,N=C(N)c1ccc(CCCCC(=O)NC(CCc2ccccc2)CC(=O)O)cc1 (stereo not drawn) [β-[[5-[4-(aminoiminomethyl)phenyl]-1-oxopentyl]amino]benzenepentanoic acid],3000 nM

# Same assay, conditions: test concentration 1 × 10^-5
row,Compound,% Inhibition
1,βR-[[5-[4-(aminoiminomethyl)phenyl]-1-oxopentyl]amino]-1-naphthalenebutanoic acid,5%

# Test system: collagen induced platelet aggregation
# Experiment: Inhibition of ex vivo collagen induced aggregation after administration to dogs
# Format: in vivo, dogs (Beagles)
# Details: Canis lupus familiaris, Platelet, dog, dose 10 mg/Kg, intragastric or intravenous, read-out: Max % Inhibition
# Procedure: The purpose of this assay is to determine the effects of antiplatelet compounds on ex vivo collagen induced platelet aggregation when administered either intravenously or orally to dogs.
# Pretreatment (control) blood samples are drawn from either conscious or anesthetized dogs (Beagles) and centrifuged to prepare platelet rich plasma (PRP). Aggregatory response to collagen is measured in an aggregometer and used as Control.
# In Table B the designation "NT" means "Not Tested". Also in Table B, two readings given in a single box indicate that two trials, rather than a single trial, were run for that particular compound in that particular assay.
row,Compound,inhibition in vivo at 10 mg/kg
1,"CCOC(=O)CC(NC(=O)CCCCc1ccc(C(=N)N)cc1)c1ccc2c(c1)OCO2 (stereo not drawn) [ethyl β-[[5-[4-(aminoiminomethyl)phenyl]-1-oxopentyl]amino]-1,3-benzodioxole-5-propanoate]",100%
2,CCOC(=O)CC(NC(=O)CCCCc1ccc(C(=N)N)cc1)c1cccnc1 (stereo not drawn) [ethyl β-[[5-[4-(aminoiminomethyl)phenyl]-1-oxopentyl]amino]-3-pyridinepropanoate],100%

# Same assay, conditions: Canis lupus familiaris, Platelet, dog, dose 20 mg/Kg, intragastric or intravenous, read-out: Max % Inhibition
row,Compound,inhibition in vivo at 20 mg/kg
1,"CCOC(=O)CC(NC(=O)CCCCc1ccc(C(=N)N)cc1)c1cc(OC)cc(OC)c1 (stereo not drawn) [ethyl β-[[5-[4-(aminoiminomethyl)phenyl]-1-oxopentyl]amino]-3,5-dimethoxybenzenepropanoate]",70%
2,CCOC(=O)CC(NC(=O)CCCCc1ccc(C(=N)N)cc1)c1cccnc1 (stereo not drawn) [ethyl β-[[5-[4-(aminoiminomethyl)phenyl]-1-oxopentyl]amino]-3-pyridinepropanoate],100%

# Same assay, conditions: Canis lupus familiaris, Platelet, dog, dose 30 mg/Kg, intragastric or intravenous, read-out: Max % Inhibition
row,Compound,inhibition in vivo at 30 mg/kg
1,C=CC(CC(=O)OCC)NC(=O)CCCCc1ccc(C(=N)N)cc1 (stereo not drawn) [ethyl 3-[[5-[4-(aminoiminomethyl)phenyl]-1-oxopentyl]amino]-4-pentenoate],100%
2,CCOC(=O)CC(CC(C)C)NC(=O)CCCCc1ccc(C(=N)N)cc1 (stereo not drawn) [ethyl 3-[[5-[4-(aminoiminomethyl)phenyl]-1-oxopentyl]amino]-5-methylhexanoate],100%

# Same assay, conditions: dog, dose 10 mg/Kg, intragastric or intravenous
row,Compound,Duration
1,"CCOC(=O)CC(NC(=O)CCCCc1ccc(C(=N)N)cc1)c1ccc2c(c1)OCO2 (stereo not drawn) [ethyl β-[[5-[4-(aminoiminomethyl)phenyl]-1-oxopentyl]amino]-1,3-benzodioxole-5-propanoate]",5 h

# Same assay, conditions: dog, dose 20 mg/Kg, intragastric or intravenous
row,Compound,Duration
1,"CCOC(=O)CC(NC(=O)CCCCc1ccc(C(=N)N)cc1)c1cc(OC)cc(OC)c1 (stereo not drawn) [ethyl β-[[5-[4-(aminoiminomethyl)phenyl]-1-oxopentyl]amino]-3,5-dimethoxybenzenepropanoate]",4 h
2,CCOC(=O)CC(NC(=O)CCCCc1ccc(C(=N)N)cc1)c1cccnc1 (stereo not drawn) [ethyl β-[[5-[4-(aminoiminomethyl)phenyl]-1-oxopentyl]amino]-3-pyridinepropanoate],> 24 h

# Same assay, conditions: dog, dose 30 mg/Kg, intragastric or intravenous
row,Compound,Duration
1,CCOC(=O)CC(CC(C)C)NC(=O)CCCCc1ccc(C(=N)N)cc1 (stereo not drawn) [ethyl 3-[[5-[4-(aminoiminomethyl)phenyl]-1-oxopentyl]amino]-5-methylhexanoate],> 6 h

# Reference: US5220050A, “Peptide mimetic compounds useful as platelet aggregation inhibitors” (G. D. Searle & Co., priority 1991, dated 1993)
